Reference: patent US5618726A, “Biodegradable azo dyes” (priority 1994, dated 1997)

Experiments:
Mn(II)-peroxidase = test: Oxidation of dyes by P. chrysosporium Mn(II)-peroxidase; format: biochemical, Phanerochaete chrysosporium; conditions: crude enzyme, conditions specific for Mn(II)-peroxidase
Method: (§1) The peroxidase assay was carried out using a composition having a final volume of 1.0 ml. The reaction mixture contained 250 μl of 100 mM HEPES buffer (pH 8), 500 μl of 10 mM 2,4-dichlorophenol, 100 μl of 1 mM aminoantipyrine, 50 μl enzyme preparation and 100 μl 50 mM H2 O2. The reaction was initiated by the addition of hydrogen peroxide at 37° C. One unit of peroxidase activity was expressed as the amount of enzyme required for an increase of one absorbance-unit-per-minute at 510 nm. Assays of manganese peroxidase and of ligninase from P. chrysosporium were carried out as previously described by Paszczynski et al in "Manganese peroxidase of Phanerochaete chrysosporium: Purification," Methods Enzymol. 161:264-270, incorporated herein by reference. […] Biophys., 1986, 44:750-765. Preparation and assay of ligninase and manganese peroxidase from these P. chrysosporium cultures were carried out as previously reported by Paszczynski, et al., Methods Enzymol., 1988, 161:264-270. […] Purification," Methods Enzymol. 161:264-270. […] Cycle time was 10 seconds, with the last measure after three minutes of incubation.

[1] = tested on: Phanerochaete chrysosporium; test: Substrate removal / decolorization by P. chrysosporium culture; format: cell-based; conditions: for % Decolorization, P. chrysosporium: 14 days
Method: Environ. Microbiol., 1981, 42:290-296), with the addition of 75 mg adenine (6-aminopurine) and 27 mg L-phenylalanine-per-liter. This addition accelerated the growth of the fungus without inhibiting ligninase activity. […] […] Cultures were incubated at 37° C. for 7 to 15 days with shaking (250 rpm). Solid agar media were also employed.

ligninase = test: Oxidation of dyes by P. chrysosporium ligninase (crude preparation); format: biochemical, Phanerochaete chrysosporium; conditions: crude enzyme, conditions specific for ligninase
Method: as §1, with “30 seconds” for “10 seconds,”, “15 minutes. […] The reaction conditions were the same as for acid yellow 9. No decolorization” for “three minutes”, “the synthesized dyes by ligninase was detected.” for “incubation.”

[2] = molecular target: T1, horseradish peroxidase type II (Armoracia rusticana, UniProt P00433); test: Oxidation of azo dyes by horseradish peroxidase preparation; format: biochemical; conditions: pH 8, 37° C., H2O2
T1 sequence (P00433 31-338): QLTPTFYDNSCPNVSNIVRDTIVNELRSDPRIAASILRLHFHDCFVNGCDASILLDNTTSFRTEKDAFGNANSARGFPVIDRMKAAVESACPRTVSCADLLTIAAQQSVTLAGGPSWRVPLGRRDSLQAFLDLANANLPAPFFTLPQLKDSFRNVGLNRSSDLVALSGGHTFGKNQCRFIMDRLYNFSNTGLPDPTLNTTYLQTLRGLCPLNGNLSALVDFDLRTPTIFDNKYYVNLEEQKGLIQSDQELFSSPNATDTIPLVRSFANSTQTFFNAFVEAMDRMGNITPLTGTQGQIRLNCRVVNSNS
Method: The reaction was started with the addition of 100 μl of 50 mM H2 O2 and was followed for 1 min at 37° C. Controls were run with no addition of H2 O2 or with the addition of the hemeperoxidase inhibitor KCN (final concentration 25 μM).

[3] = tested on: S. chromofuscus A11 extracellular peroxidase; test: Oxidation of azo dyes by S. chromofuscus A11 crude enzyme preparation; format: biochemical, Streptomyces chromofuscus A11; conditions: pH 8, 37° C., H2O2
Method: Environ. Microbiol., 1988, 54:3057-3063. […] Microbiol. Biotechnol., 34:661-667. Incubation took place at 37° C. with shaking at 250 rpm. The culture supernatant was collected after 48 h incubation, and vacuum-filtered through Whatman no. 1 filter paper. The filtrate was concentrated approximately 40- to 50-fold by ultrafiltration through an Amicon ultrafiltration stirred cell (series no. 8000, Amicon Corp.) with a disc PM-10 filter (diameter, 76 mm). Protein in the concentrated filtrate was then precipitated from solution with 80% ammonium sulfate. The precipitate was collected by centrifugation (15 min, 10,000 rpm). The pellet was resuspended in 10 ml of 20 mM HEPES buffer (pH 8) and dialyzed overnight against the same buffer at 4° C. These preparations were then stored in 1-ml aliquots at -20° C. until used. Before using, the preparation was filtered through a NAP-25 Sephadex G-25 disposable column (Pharmacia) in order to separate a yellowish protein fraction from a pink low-molecular-weight fraction. The yellowish fraction was used as the source of enzyme. […] The reaction was started with the addition of 100 μl of 50 mM H2 O2 and was followed for 1 min at 37° C. Controls were run with no addition of H2 O2 or with the addition of the hemeperoxidase inhibitor KCN (final concentration 25 μM).

[4] = beginning concentration 100 ppm
[5] = beginning concentration 150 ppm
[6] = beginning concentration 200 ppm
[7] = beginning concentration 300 ppm

SMILES	Oxidation rate of azo dyes, P. chrysosporium Mn-peroxidase (Mn(II)-peroxidase) [μmoles per minute per ml]	Concentration of substrate after ten days cultivation with P. chrysosporium [1, 4] [ppm]	Concentration of substrate after ten days cultivation with P. chrysosporium [1, 5] [ppm]	Concentration of substrate after ten days cultivation with P. chrysosporium [1, 6] [ppm]	Concentration of substrate after ten days cultivation with P. chrysosporium [1, 7] [ppm]	% Decolorization, P. chrysosporium ([1]; initial concn 150 ppm) [%]	% Decolorization, P. chrysosporium ([1]; initial concn 300 ppm) [%]	Oxidation rate of azo dyes, P. chrysosporium Ligninase (ligninase) [μmoles per minute per ml]	Oxidation rate of azo dyes, Horseradish peroxidase [2] [μmoles per minute per ml]	Oxidation rate of azo dyes, S. chromofuscus peroxidase [3] [μmoles per minute per ml]
O=S(=O)(O)c1ccc(N=Nc2ccc(O)cc2)cc1 [compound 6]	0.02	12.909	14.003	33.309	39.326	72	18	0.45	0.47	0.42
Cc1cc(O)c(N=Nc2ccc(S(=O)(=O)O)cc2)cc1C [compound 7]	0.11	62.893	41.044	10.200	246.044	81	55	1.35	0.34	0.19
Cc1ccc(O)c(N=Nc2ccc(S(=O)(=O)O)cc2)c1 [compound 8]	0.32	16.079	28.401	29.704	135.680	27	49	0.49	0.07	0.14
CCc1ccc(O)c(N=Nc2ccc(S(=O)(=O)O)cc2)c1 [compound 9]	0.07	81.911	109.822	32.044	153.733	89	86	1.27	0.20	0.35
O=S(=O)(O)c1ccc(N=Nc2cc(F)c(O)c(F)c2)cc1 [compound 12]	0.00	2.368	44.227	6.160	198.240	86	93	11.61	0.17	0.15
CN(C)c1ccc(N=Nc2ccc(S(=O)(=O)O)cc2)cc1 [compound 14]	0.15	4.411	11.843	15.529	36.800	93	94	0.32	0.07	0.10
COc1ccc(N=Nc2ccc(S(=O)(=O)O)cc2)cc1 [compound 16]	0.00	67.801	92.683	179.300	219.079	61	55	0.25	0.06	0.06
COc1ccc(N=Nc2ccc(S(=O)(=O)O)cc2)cc1OC [compound 17]	0.72	29.803	58.942	93.250	136.057	79	74	1.03	0.32	0.50
O=S(=O)(O)c1ccc(N=Nc2c(O)ccc3ccccc23)cc1 [compound 31]	0.47	–	–	–	–	–	–	1.18	0.52	0.09
